According to patent US6387936B1 (Aventis Pharma S.A., priority 1998, dated 2002):
Where “and” joins values, the source holds several entries; their conditions need not be identical. Equal entries are not always repeated.

What was measured:
[1] = tested on: parkinsonian marmosets (MPTP); experiment: Locomotory activity of MPTP-treated parkinsonian marmosets (image analyser, small/medium/large movements); assay type: in vivo, Callithrix jacchus; set-up: Locomotory activity, small movements / Locomotory activity, small movements, Average ± S.E.M. / Locomotory activity, medium movements / Locomotory activity, large movements / Time passed in moving, small movements: unit not given here; conditions: for Time passed in moving, large movements, Average ± S.E.M. / Time passed in moving, medium movements, Average ± S.E.M. / Time passed in moving, small movements, Average ± S.E.M. / Time passed in moving, small movements / Time passed in moving, medium movements / Time passed in moving, large movements: 30 min after 1st daily L-DOPA
Experimental: On day 32, the animals are divided into 2 groups. […] The locomotory activity is determined by placing the animals in test cages (50 cm×83 cm×77 cm) which are equipped with 3 […] onto which the animals can jump as well as a Plexiglas door in front of which is placed a camera. […] The image is digitalized with a 800×600 definition with 256 levels of grey and the changes in pixels from one image to another are counted. This allows the locomotory activity to be classified into small, medium or large movements. […] The locomotory activity of the animals is measured during the exploration phase, that is to say immediately after they are placed in the test cage.

[2] = tested on: parkinsonian marmosets (MPTP); experiment: Dyskinesic score in MPTP-treated marmosets under chronic L-DOPA; assay type: in vivo, Callithrix jacchus; set-up: Total dyskinesic score, individual values / Total dyskinesic score, Average ± S.E.M.: scale not given here; conditions: for Total dyskinesic score, Average ± S.E.M. / Total dyskinesic score, individual values: L-DOPA alone (Group 1 controls, sucrose); for Total dyskinesic score, individual values: marmosets 1-3
Experimental: The marmosets have free access to water and have available each day 35 g of food rich in carbohydrates, proteins and vitamins mixed with water, milk and sugar and also fresh fruit.
All the animals receive 3 injections of 2 mg/kg of MPTP by the subcutaneous route, on days 1, 7 and 32. On day 32, the animals are divided into 2 groups.
The dyskinesic score is determined according to a number of parameters and each with a different degree of intensity: […]

[3] = 30 min after the 1st administration of L-DOPA (25 mg/kg p.o.), Group 1, all intervals of 1 h
[4] = 30 min after the 1st administration of L-DOPA (25 mg/kg p.o.), Group 1 marmosets 1-3, interval 11-20 min
[5] = 30 min after the 1st administration of L-DOPA (25 mg/kg p.o.), Group 1 marmosets 1-3, interval 31-40 min
[6] = 30 min after the 1st administration of L-DOPA (25 mg/kg p.o.), Group 1 marmosets 1-3, interval 41-50 min
[7] = 30 min after the 1st administration of L-DOPA (25 mg/kg p.o.), Group 1 marmosets 1-3, interval 51-60 min
[8] = L-DOPA alone (Group 1, sucrose), 10 days after L-DOPA, in s (unit assumed)
[9] = L-DOPA alone (Group 1, sucrose), 20 days after L-DOPA, in s (unit assumed)
[10] = day 57 after 1st MPTP, 30 min after 1st daily L-DOPA
[11] = day 57 after 1st MPTP, 2 h after 1st daily L-DOPA
[12] = day 60 after 1st MPTP, 30 min after 1st daily L-DOPA
[13] = day 60 after 1st MPTP, 2 h after 1st daily L-DOPA
[14] = day 67 after 1st MPTP, 30 min after 1st daily L-DOPA
[15] = day 67 after 1st MPTP, 2 h after 1st daily L-DOPA
[16] = day 104 after 1st MPTP, 30 min after 1st daily L-DOPA
[17] = day 104 after 1st MPTP, 2 h after 1st daily L-DOPA
[18] = riluzole 2 × 10 mg/kg + L-DOPA (Group 2), 10 days after L-DOPA
[19] = riluzole 2 × 10 mg/kg + L-DOPA (Group 2), 10 days after L-DOPA, marmosets 4-6, interval 21-30 min, 10 mg/kg, in s (unit assumed)
[20] = riluzole 2 × 10 mg/kg + L-DOPA (Group 2), 10 days after L-DOPA, marmosets 4-6, interval 31-40 min, 10 mg/kg, in s (unit assumed)
[21] = riluzole 2 × 10 mg/kg + L-DOPA (Group 2), 10 days after L-DOPA, marmosets 4-6, interval 51-60 min, 10 mg/kg, in s (unit assumed)
[22] = riluzole 2 × 10 mg/kg + L-DOPA (Group 2), 20 days after L-DOPA, in s (unit assumed)
[23] = riluzole 2 × 10 mg/kg + L-DOPA (Group 2), 20 days after L-DOPA, marmosets 4-6, interval 1-10 min, 10 mg/kg, in s (unit assumed)

Compound: N[C@@H](Cc1ccc(O)c(O)c1)C(=O)O [L-DOPA, 3-(3,4-dihydroxyphenyl)-L-alanine]
- Locomotory activity, large movements, Average ± S.E.M. [1, 3]: 334 + 23
- Locomotory activity, medium movements, Average ± S.E.M. [1, 3]: 226 ± 13
- Locomotory activity, small movements, Average ± S.E.M. [1, 3]: 40 ± 16
- Locomotory activity, medium movements ([1]; 30 min after the 1st administration of L-DOPA (25 mg/kg p.o.), Group 1 marmosets 1-3, interval 1-10 min): 250 and 235 and 270
- Locomotory activity, large movements [1, 4]: 350 and 385 and 275
- Locomotory activity, medium movements [1, 4]: 240 and 190 and 290
- Locomotory activity, large movements ([1]; 30 min after the 1st administration of L-DOPA (25 mg/kg p.o.), Group 1 marmosets 1-3, interval 21-30 min): 490 and 370 and 375
- Locomotory activity, large movements [1, 5]: 290 and 230 and 335
- Locomotory activity, medium movements [1, 5]: 255 and 355 and 205
- Locomotory activity, large movements [1, 6]: 425 and 295 and 420
- Locomotory activity, medium movements [1, 6]: 165 and 260
- Locomotory activity, large movements [1, 7]: 350 and 330 and 365
- Locomotory activity, medium movements [1, 7]: 215 and 240 and 200
- Locomotory activity, small movements [1, 7]: 35 and 30
- Effect on locomotory activity (in words) ([1]; L-DOPA after repeated treatment of 10 days and of 20 days): does not have or has little beneficial effect on the locomotory activity
- Time passed in moving, large movements, Average ± S.E.M. [1, 8]: 171 ± 48
- Time passed in moving, medium movements, Average ± S.E.M. [1, 8]: 160 ± 23
- Time passed in moving, small movements, Average ± S.E.M. [1, 8]: 269 ± 47
- Time passed in moving, small movements ([1]; L-DOPA alone (Group 1, sucrose), 10 days after L-DOPA, marmosets 1-3, interval 51-60 min): 205 and 225 and 240
- Time passed in moving, medium movements ([1]; L-DOPA alone (Group 1, sucrose), 10 days after L-DOPA, marmosets 1-3, interval 51-60 min, in s (unit assumed)): 165 and 305 and 235
- Time passed in moving, large movements, Average ± S.E.M. [1, 9]: 283 ± 50
- Time passed in moving, medium movements, Average ± S.E.M. [1, 9]: 235 ± 37
- Time passed in moving, small movements, Average ± S.E.M. [1, 9]: 83 ± 19
- Effect on locomotory activity (in words) ([1]; acute administration of L-DOPA 25 mg/kg, 15 days after the 3rd injection of MPTP): increases the locomotory activity by decreasing the small movements and increasing the large movements
- Total dyskinesic score, Average ± S.E.M. [2, 10]: 6.7 ± 2.1
- Total dyskinesic score, individual values [2, 10]: 4 and 11 and 5
- Total dyskinesic score, Average ± S.E.M. [2, 11]: 6.0 ± 2.1
- Total dyskinesic score, individual values [2, 11]: 3 and 10 and 5
- Total dyskinesic score, Average ± S.E.M. [2, 12]: 9.0 ± 2.5
- Total dyskinesic score, individual values [2, 12]: 4 and 11 and 12
- Total dyskinesic score, Average ± S.E.M. [2, 13]: 8.3 ± 2.32
- Total dyskinesic score, individual values [2, 13]: 4 and 9 and 12
- Total dyskinesic score, Average ± S.E.M. [2, 14]: 10 ± 3.0
- Total dyskinesic score, individual values [2, 14]: 4 and 14 and 12
- Total dyskinesic score, Average ± S.E.M. [2, 15]: 10 ± 3.0
- Total dyskinesic score, individual values [2, 15]: 4 and 13 (2×)
- Total dyskinesic score, Average ± S.E.M. [2, 16]: 11 ± 3.8
- Total dyskinesic score, individual values [2, 16]: 4 and 17 and 2
- Total dyskinesic score, Average ± S.E.M. [2, 17]: 11 ± 3.0
- Total dyskinesic score, individual values [2, 17]: 5 and 17 and 12
- Dyskinesias (in words) ([2]; repeated L-DOPA 25 mg/kg oral, 3 times per day, days 57, 60, 67 and 104, maximum effect on day 104): produce dyskinesias

Compound: Nc1nc2ccc(OC(F)(F)F)cc2s1 [riluzole, 2-amino-6-trifluoromethoxybenzo-thiazole]
- Effect on locomotory activity (in words) ([1]; riluzole 10 mg/kg oral, twice per day for 72 days, after 10 and 20 days of treatment with L-DOPA): capable of improving the locomotory activity
- Time passed in moving, large movements, Average ± S.E.M. [1, 18]: 410 ± 25^+++
- Time passed in moving, small movements, Average ± S.E.M. [1, 18]: 57 ± 16^+++
- Time passed in moving, medium movements, Average ± S.E.M. ([1]; riluzole 2 × 10 mg/kg + L-DOPA (Group 2), 10 days after L-DOPA, in s (unit assumed)): 134 ± 13
- Time passed in moving, small movements ([1]; riluzole 2 × 10 mg/kg + L-DOPA (Group 2), 10 days after L-DOPA, marmosets 4-6, interval 1-10 min): 5
- Time passed in moving, large movements ([1]; riluzole 2 × 10 mg/kg + L-DOPA (Group 2), 10 days after L-DOPA, marmosets 4-6, interval 1-10 min, 10 mg/kg, in s (unit assumed)): 560 and 495 and 520
- Time passed in moving, large movements ([1]; riluzole 2 × 10 mg/kg + L-DOPA (Group 2), 10 days after L-DOPA, marmosets 4-6, interval 11-20 min, 10 mg/kg, in s (unit assumed)): 565 and 455 and 370
- Time passed in moving, large movements [1, 19]: 540 and 355 and 435
- Time passed in moving, medium movements [1, 19]: 60 and 120 and 115
- Time passed in moving, large movements [1, 20]: 460 and 240 and 385
- Time passed in moving, medium movements [1, 20]: 140 and 215 and 190
- Time passed in moving, medium movements ([1]; riluzole 2 × 10 mg/kg + L-DOPA (Group 2), 10 days after L-DOPA, marmosets 4-6, interval 41-50 min, 10 mg/kg, in s (unit assumed)): 155 and 205 and 175
- Time passed in moving, large movements [1, 21]: 430 and 265 and 310
- Time passed in moving, medium movements [1, 21]: 135 and 125 and 190
- Time passed in moving, medium movements, Average ± S.E.M. ([1]; riluzole 2 × 10 mg/kg + L-DOPA (Group 2), 20 days after L-DOPA): 148 ± 13^+
- Time passed in moving, large movements, Average ± S.E.M. [1, 22]: 365 ± 37
- Time passed in moving, small movements, Average ± S.E.M. [1, 22]: 67 ± 30
- Time passed in moving, large movements [1, 23]: 445 and 335 and 490
- Time passed in moving, medium movements [1, 23]: 155 and 140 and 80
- Time passed in moving, medium movements ([1]; riluzole 2 × 10 mg/kg + L-DOPA (Group 2), 20 days after L-DOPA, marmosets 4-6, interval 51-60 min, 10 mg/kg, in s (unit assumed)): 90 and 180 and 105
